Target: human FXa (Homo sapiens, UniProt P00742)
Experiment: Determination of inhibitory activity of activated blood coagulation factor X (FXa)
Assay type: biochemical
Conditions: substrate S-2765, Tris buffer pH 8.4, incubation 30 minutes, absorbance A405; read-out: FXa inhibitory activity, 50% inhibitory activity (IC50)
Experimental: A test substance was dissolved in water or water containing organic solvents (DMSO, ethanol or methanol) at a suitable concentration to provide a specimen. To 70 μl each of the resulting specimens serially diluted with water, were added 90 μl of a 100 mM Tris buffer (pH 8.4), 20 μl of a 50 mM Tris buffer (pH 8.4) containing 50 mU/ml human FXa and 2 mM of a substrate (S-2765 manufactured by Daiichi Pure Chemicals Co., Ltd.). Incubation was carried out for 30 minutes. To the incubated mixture, was then added 50 μl of a 50% acetic acid. The absorbance (A405) was determined. A mixture prepared by adding the Tris buffer instead of the FXa was used as a blank, and a mixture containing water instead of the specimen was used as a control. The 50% inhibitory activity (IC50) was determined as the indication of FXa inhibitory activity.

Sequence of human FXa (P00742 235-488 limits assumed): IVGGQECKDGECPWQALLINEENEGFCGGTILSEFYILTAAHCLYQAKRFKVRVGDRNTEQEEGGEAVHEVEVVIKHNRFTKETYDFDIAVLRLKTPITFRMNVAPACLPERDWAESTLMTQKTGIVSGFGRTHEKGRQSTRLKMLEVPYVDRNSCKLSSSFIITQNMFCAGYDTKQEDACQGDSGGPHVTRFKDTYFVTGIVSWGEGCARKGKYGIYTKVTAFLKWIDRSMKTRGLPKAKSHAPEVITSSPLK
Sequence of human FXa (P00742 41-179 partner limits assumed): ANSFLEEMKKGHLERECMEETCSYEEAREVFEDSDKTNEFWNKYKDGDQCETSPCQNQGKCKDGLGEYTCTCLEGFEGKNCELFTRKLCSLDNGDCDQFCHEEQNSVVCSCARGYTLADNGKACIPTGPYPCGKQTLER

| Structure (SMILES) | IC50 [nM] |
| --- | --- |
| COC(=O)c1cc(COCC2CCN(C(C)=O)CC2)cc(-c2cccc(C(=N)N)c2)c1 [Reference Example 5, methyl 3-(3-amidinophenyl)-5-[(N-acetylpiperidin-4-yl)methoxymethyl]-5-benzoate] | 100 to 1000 |
| COC(=O)c1cc(COCC2CCN(C(C)=N)CC2)cc(-c2cccc(C(=N)N)c2)c1 [Reference Example 7, methyl 3-(3-amidinophenyl)-5-[(1-acetimidoyl-4-piperidinyl)methoxymethyl]benzoate] | 10 to 100 |
| COC(=O)c1cc(COCC2CCN(C(C)C)CC2)cc(-c2cccc(C(=N)N)c2)c1 [Reference Example 4, methyl 3-(3-amidinophenyl)-5-[(N-isopropyl-4-piperidinyl)methoxymethyl]-5-benzoate] | 100 to 1000 |
| COC(=O)c1cc(CNCC2CCN(C(C)=N)CC2)cc(-c2cccc(C(=N)N)c2)c1 [Reference Example 6, methyl 3-(3-amidinophenyl)-5-[(((N-acetimidoylpiperidin-4-yl)methyl)amino)methyl]benzoate] | 10 to 100 |
| CC(C)N1CCC(COCc2cc(C(=O)O)cc(-c3cccc(C(=N)N)c3)c2)CC1 | 100 to 1000 |
| COC(=O)c1cc(COCC2CCNCC2)cc(-c2cccc(C(=N)N)c2)c1 [Reference Example 3, methyl 3-(3-amidinophenyl)-5-[(4-piperidinyl)methoxymethyl]-5-benzoate] | 100 to 1000 |

From patent US6538137B1 (Teijin Limited, priority 1999, dated 2003)
